How the values were obtained:
[1] = molecular target: T1, vanilloid receptors on vasodilator sensory nerves (Rattus norvegicus, UniProt O35433); test: Vasodilator effect in isolated rat mesenteric artery segments contracted with phenylephrine; conditions: for activation of vanilloid receptors on perivascular sensory nerves: FIG. 7; for inhibition of the effect of capsaicin (antagonist action on vanilloid receptors): 1 mM acetaminophen or 100 μM p-aminophenol for 30 min; for vasorelaxation per se (agonist action on vanilloid receptors): p-aminophenol in the presence of ascorbic acid; for relaxation of arterial segments contracted with phenylephrine: FIG. 7c; for effect on the vasodilator action of AM404: capsazepine 3 μM, ruthenium red 1 μM
T1 construct: from tissue; host or cells: mesenteric arteries from female Wistar-Hannover rats
T1 sequence (O35433 whole entry): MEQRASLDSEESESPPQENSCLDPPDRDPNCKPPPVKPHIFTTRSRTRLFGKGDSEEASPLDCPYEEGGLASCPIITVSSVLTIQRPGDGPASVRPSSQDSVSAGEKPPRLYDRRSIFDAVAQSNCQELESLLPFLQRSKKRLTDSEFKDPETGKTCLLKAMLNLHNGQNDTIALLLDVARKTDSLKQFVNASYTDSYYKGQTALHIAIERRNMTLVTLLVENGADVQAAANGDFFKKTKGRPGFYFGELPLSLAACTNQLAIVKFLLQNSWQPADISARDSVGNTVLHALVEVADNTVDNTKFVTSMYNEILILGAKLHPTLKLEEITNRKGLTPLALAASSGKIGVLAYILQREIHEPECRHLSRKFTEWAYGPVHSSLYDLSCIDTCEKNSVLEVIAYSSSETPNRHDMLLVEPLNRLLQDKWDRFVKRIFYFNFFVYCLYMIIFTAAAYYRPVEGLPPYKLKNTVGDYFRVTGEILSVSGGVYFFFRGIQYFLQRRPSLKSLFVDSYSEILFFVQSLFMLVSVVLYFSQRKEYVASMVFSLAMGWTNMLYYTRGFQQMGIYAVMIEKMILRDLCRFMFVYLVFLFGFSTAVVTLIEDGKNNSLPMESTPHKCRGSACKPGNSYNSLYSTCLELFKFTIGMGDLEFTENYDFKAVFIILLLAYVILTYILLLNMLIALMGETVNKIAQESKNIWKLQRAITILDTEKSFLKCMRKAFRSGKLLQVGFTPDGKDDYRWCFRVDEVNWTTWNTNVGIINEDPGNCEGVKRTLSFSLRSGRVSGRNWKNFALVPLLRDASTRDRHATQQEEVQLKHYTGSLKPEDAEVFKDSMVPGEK
Description: Recording of tension. Experiments were performed on mesenteric arteries from female Wistar-Hannover rats (250 g) as described (48). Briefly, the arteries were cut into ring segments and mounted in tissue baths, containing aerated physiological salt solution (5% CO2 and 95% O2; 37° C.; pH 7.4). […] We studied relaxant responses in preparations contracted with phenylephrine. When stable contractions were obtained, substances were added cumulatively to determine concentration-response relationships.
Calculations and statistics. Data are presented as means ±S.E.M. (vertical lines in figures), and n indicates the number of animals unless otherwise stated. GraphPad Prism 3.0 software was used for curve fitting (non-linear regressions) and calculations of pEC50 values. Mann-Whitney U-test or Student's t-test on log transformed values was used for statistical analysis. Statistical significance was accepted when P<0.05.

COX-1 = molecular target: T2, COX-1 (Ovis aries, UniProt P05979); conditions: isolated enzyme preparation; 10 μM arachidonic acid
T2 sequence (P05979 25-600): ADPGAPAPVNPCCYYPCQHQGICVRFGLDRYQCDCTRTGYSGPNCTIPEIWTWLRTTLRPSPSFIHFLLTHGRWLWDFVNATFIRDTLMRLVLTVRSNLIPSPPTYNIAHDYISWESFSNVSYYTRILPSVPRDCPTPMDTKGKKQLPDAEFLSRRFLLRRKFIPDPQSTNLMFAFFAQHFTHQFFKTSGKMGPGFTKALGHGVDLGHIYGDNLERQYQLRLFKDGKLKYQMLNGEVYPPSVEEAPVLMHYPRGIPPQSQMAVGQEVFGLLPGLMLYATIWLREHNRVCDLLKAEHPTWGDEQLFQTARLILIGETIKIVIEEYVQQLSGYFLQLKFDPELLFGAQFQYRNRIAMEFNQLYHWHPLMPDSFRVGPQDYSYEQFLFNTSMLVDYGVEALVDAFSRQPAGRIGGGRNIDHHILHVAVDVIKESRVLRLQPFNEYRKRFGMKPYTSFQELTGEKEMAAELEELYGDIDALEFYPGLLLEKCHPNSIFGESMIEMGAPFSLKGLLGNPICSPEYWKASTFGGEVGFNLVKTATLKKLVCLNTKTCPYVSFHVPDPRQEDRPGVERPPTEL
Description: (§1) COX activity was measured as prostaglandin formation in the presence of 10 μM arachidonic acid.
(§2) COX-1 and COX-2 assays. COX-1 and COX-2 activity was determined in the presence of 10 μM arachidonic acid using a COX (ovine) inhibitor screening assay (Cayman). Drugs were incubated with the enzyme preparation 8 min before application of arachidonic acid. Prostaglandin formation was used as a measure of COX activity and quantified via enzyme immunoassay (EIA).

COX-2 = molecular target: T3, COX-2 (Ovis aries, UniProt P79208); conditions: isolated enzyme preparation; 10 μM arachidonic acid
T3 sequence (P79208 17-603): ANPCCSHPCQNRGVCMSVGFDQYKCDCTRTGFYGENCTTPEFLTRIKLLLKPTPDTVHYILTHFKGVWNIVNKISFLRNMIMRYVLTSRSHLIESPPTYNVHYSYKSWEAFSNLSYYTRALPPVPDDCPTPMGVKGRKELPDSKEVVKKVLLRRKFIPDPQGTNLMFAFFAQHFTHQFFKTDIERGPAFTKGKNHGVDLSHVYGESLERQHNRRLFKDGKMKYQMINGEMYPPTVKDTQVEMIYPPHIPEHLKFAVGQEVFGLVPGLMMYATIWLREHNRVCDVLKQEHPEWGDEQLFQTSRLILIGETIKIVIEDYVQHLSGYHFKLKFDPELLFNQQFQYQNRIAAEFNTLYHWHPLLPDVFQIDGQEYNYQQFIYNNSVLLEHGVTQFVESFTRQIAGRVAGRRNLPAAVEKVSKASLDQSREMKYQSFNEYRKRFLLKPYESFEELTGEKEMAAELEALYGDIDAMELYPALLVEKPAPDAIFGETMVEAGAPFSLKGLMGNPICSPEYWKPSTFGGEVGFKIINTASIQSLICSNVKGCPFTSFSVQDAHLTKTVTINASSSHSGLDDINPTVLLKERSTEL
Description: as §1, §2

[2] = Description: In vivo experiments. Acetaminophen ([…]) or vehicle (saline) at a volume of 2-3 ml was given to female Wistar-Hannover rats (200-300 g) by an intraperitoneal injection. Some rats were pretreated with PMSF (10 mg kg^−1) or vehicle (saline:PEG 6000; 1:10 w/w) given subcutaneously (2-3 ml) 20 min before administration of acetaminophen. Approximately 20 min after injection of acetaminophen, the animals were killed to collect brain, liver, spinal cord and arterial blood. […] PMSF (0.1 mM) and ascorbic acid (0.3 mM) were also present in the Tris buffer and added to the blood samples to prevent degradation of fatty acid amides and p-aminophenol, respectively.
Quantitative analyses. The extraction residues were reconstituted in 100 μl methanol except for p-aminophenol, for which 100 μl 0.5% acetic acid was used. The quantitative analyses were performed using a Perkin Elmer 200 liquid chromatography system with autosampler (Applied Biosystems), coupled to an API 3000 tandem mass spectrometer (Applied Biosystems/MDS-SCIEX). All mobile phases were water-methanol gradients, containing 0.5% acetic acid, and the flow rate was 200 μl min^−1 except for arachidonic acid where it was 400 μl min^−1.
AM404, arachidonoyldopamine, arachidonoylserotonin and anandamide.
p-Aminophenol. Sample aliquots of 2 μl were injected on a Genesis phenyl column (150×2.1 mm; Jones). The mobile flow was initially 97% water for 2 min. […] The electrospray ion source was set at 450° C. and used in the positive ion mode. The ion spray voltage and declustering potential were set to 4500 volts and 55 volts, respectively. M/z 109.9/64.6 with a collision energy of 31 volts was used for the quantitative determinations.

[3] = test system: AM404 production in brain homogenates; test: Inhibition of AM404 formation in rat brain homogenates; assay type: biochemical; conditions: 1 hour pre-incubation, p-aminophenol plus arachidonic acid each 100 μM
Description: (§3) Tissue homogenate experiments. The brain, liver, spinal cord and dorsal root ganglia from female Wistar-Hannover rats (250 g) were homogenised in a Tris buffer (10 mM, pH 7.6), containing EDTA (1 mM), to give 90-330 mg tissue ml^−1. We carried out experiments in aliquots of 200 μl homogenate at 37° C. as further explained in the text. The reactions were stopped by adding 1 ml ice-cold acetone containing 1 μM [^2H8]-anandamide. The samples were kept on ice until the acetone phase was evaporated in vacuo.

anandamide hydrolysis = test: Inhibition of [2H8]-anandamide hydrolysis in rat brain homogenates; assay type: biochemical; conditions: 1 hour pre-incubation, [2H8]-anandamide 10 μM
Remark: listed apart in the source
Description: as §3
Sample aliquots of 5 μl were injected on a Genesis C18 column (50×2.1 mm; Jones). The HPLC was operated isocratically at 20% water and 80% methanol. The electrospray ion source was operating in the negative ion mode at 370° C., the ion spray voltage was −3000 volts and the declustering potential was −120 volts. M/z 310.8/267.0 with a collision energy of −22 volts was used for the quantitative determinations.

[4] = female, Wistar-Hannover, rat, pH 7.6
Description: as §3
Sample aliquots of 5 μl were injected on a Genesis C8 column (20×2.1 mm; Jones). Initially, the mobile flow was 25% water for 5.5 min. […]
p-Aminophenol. […] M/z 109.9/64.6 with a collision energy of 31 volts was used for the quantitative determinations. […]

[5] = PMSF 10 mg kg^−1 s.c. 20 min before acetaminophen

SMILES: CCCCC/C=C\C/C=C\C/C=C\C/C=C\CCCC(=O)OCC(O)CO (stereo not drawn) [1-arachidonoylglycerol]
- activation of vanilloid receptors on perivascular sensory nerves [1]: activators

SMILES: CCCCC/C=C\C/C=C\C/C=C\C/C=C\CCCC(=O)OC(CO)CO [2-arachidonoylglycerol]
- activation of vanilloid receptors on perivascular sensory nerves [1]: activators

SMILES: CCCCCC=CCC=CCC=CCC=CCCCC(=O)Nc1ccc(O)cc1 [AM404, N-(4-hydroxyphenyl)-5,8,11,14-eicosatetraenamide]
- effect on COX-1 activity (COX-1): concentration-dependently inhibited
- effect on COX-2 activity (COX-2): concentration-dependently inhibited
- EC50 [1]: 15.8 nM
- relaxation of arteries pre-treated with capsaicin ([1]; capsaicin 1 μM for 30 min): unable to relax

SMILES: O=S(=O)(F)Cc1ccccc1 [PMSF, phenyl-methyl-sulphonylfluoride]
- effect on formation of AM404 in brain after acetaminophen [2, 5]: abolished
- reduction of p-aminophenol content in brain after acetaminophen [2, 5]: 48%
- pEC50 for inhibition of the formation of AM404 [3]: 5.41±0.03
- pEC50 for inhibition of the hydrolysis of anandamide (anandamide hydrolysis): 5.28±0.07
- effect on formation of arachidonoyldopamine and arachidonoylserotonin (PMSF 100 μM added 1 hour before): almost abolished

SMILES: CC(=O)Nc1ccc(O)cc1 [acetaminophen]
- effect on COX-1 activity (COX-1): No effect
- effect on COX-2 activity (COX-2): No effect
- inhibition of the effect of capsaicin (antagonist action on vanilloid receptors) [1]: nor inhibited the effect of capsaicin
- vasorelaxation per se (agonist action on vanilloid receptors) [1]: neither induced vasorelaxation per se
- AM404 in brain, representative chromatogram of one animal ([2]; female, Wistar-Hannover, rat, in vivo, 20 min): 23.4 pmol/g
- AM404 formation in brain homogenates ([4]; 100 μM): did not result in any detectable levels of AM404
- AM404 in brain homogenates ([4]; 1 mM): 14 ± 2.6 pmol/g

SMILES: CCCCC/C=C\C/C=C\C/C=C\C/C=C\CCCC(=O)NCCc1ccc(O)c(OC)c1 [arachidonoyl-3-methoxytyramine]
- activation of vanilloid receptors on perivascular sensory nerves [1]: activators
- relaxation of arterial segments contracted with phenylephrine [1]: concentration-dependent relaxation

SMILES: CCCCC/C=C\C/C=C\C/C=C\C/C=C\CCCC(=O)NCCc1ccc(O)cc1 [arachidonoyltyramine]
- activation of vanilloid receptors on perivascular sensory nerves [1]: activators
- relaxation of arterial segments contracted with phenylephrine [1]: concentration-dependent relaxation

SMILES: Oc1cc2c(cc1O)CN(C(=S)NCCc1ccc(Cl)cc1)CCC2 [capsazepine]
- effect on the vasodilator action of AM404 [1]: inhibited

SMILES: NCCc1ccc(O)c(O)c1 [dopamine]
- production of arachidonoyldopamine (brain homogenates, dopamine 100 μM plus arachidonic acid 100 μM, 1 hour): substantial amounts

SMILES: Nc1ccc(O)cc1 [p-aminophenol]
- effect on COX-1 activity (COX-1): No effect
- effect on COX-2 activity (COX-2): No effect
- inhibition of the effect of capsaicin (antagonist action on vanilloid receptors) [1]: nor inhibited the effect of capsaicin
- vasorelaxation per se (agonist action on vanilloid receptors) [1]: neither induced vasorelaxation per se

SMILES: N.N.N.N.N.N.N.N.N.N.N.N.N.N.[Cl-].[Cl-].[Cl-].[Cl-].[Cl-].[Cl-].[O-2].[O-2].[Ru+3].[Ru+3].[Ru+4] [ruthenium red]
- effect on the vasodilator action of AM404 [1]: inhibited

SMILES: NCCc1c[nH]c2ccc(O)cc12 [serotonin]
- production of arachidonoylserotonin (brain homogenates, serotonin 100 μM plus arachidonic acid 100 μM, 1 hour): substantial amounts

— patent US20040209959A1, “Congeners of acetaminophen and related compounds as substrates for fatty acid conjugation and their use in treatment of pain, fever and inflammation” (priority 2001, published 2004)
